Assay results reported in patent US11053242B2, “[9,10-dimethoxy-3-(2-methylpropyl)-1H,2H,3H,4H,6H,7H,11BH-pyrido-[2,1-a]isoquinolin-2-yl]methanol and compounds, compositions and methods relating thereto” (Neurocrine Biosciences, Inc., priority 2015, dated 2021).

These compounds were tested against VMAT2 (human platelet homogenate) (Homo sapiens (Human), UniProt Q05940) (assay: Human VMAT2 Ki, slightly modified competition binding procedure (Table 11)). Details: 10 nM 3H-dihydrotetrabenazine.
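Note: competition binding with 90 min incubation at 25 °C, after which filter-retained radioligand was measured by scintillation counting.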
Experimental: Following incubation at 25° C. for 90 minutes, bound radioligand was collected by rapid filtration onto GF/B glass fiber filters using a Unifilter-96 Harvester (PerkinElmer). Filter plates were pre-treated with 0.1% polyethylenimine and allowed to dry overnight, and following harvesting the filter plates were washed with 800 d VMAT2 binding buffer. Bound radioligand was quantified by scintillation counting using a Topcount NXT (PerkinElmer).

Sequence of VMAT2 (human platelet homogenate) (Q05940 whole entry): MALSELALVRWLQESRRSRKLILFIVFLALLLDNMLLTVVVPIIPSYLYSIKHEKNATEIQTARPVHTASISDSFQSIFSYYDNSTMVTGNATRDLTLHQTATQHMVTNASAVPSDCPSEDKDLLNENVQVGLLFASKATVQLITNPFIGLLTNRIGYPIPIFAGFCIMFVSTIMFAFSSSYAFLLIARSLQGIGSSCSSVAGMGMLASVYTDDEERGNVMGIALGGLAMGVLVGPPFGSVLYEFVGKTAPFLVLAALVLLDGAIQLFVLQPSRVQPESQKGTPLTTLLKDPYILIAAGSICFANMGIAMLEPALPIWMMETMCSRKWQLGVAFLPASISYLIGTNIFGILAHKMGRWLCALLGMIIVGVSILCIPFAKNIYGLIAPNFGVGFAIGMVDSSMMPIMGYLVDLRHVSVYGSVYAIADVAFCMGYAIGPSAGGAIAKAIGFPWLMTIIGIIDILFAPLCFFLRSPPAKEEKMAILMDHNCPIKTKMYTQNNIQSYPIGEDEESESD

Compound | Ki
COc1cc2c(cc1OC)[C@H]1C[C@@H](COC(=O)C3CNCCO3)[C@H](CC(C)C)CN1CC2 (stereo partly drawn) [Compound 4-27, [(2R,3S,11bR)-9,10-dimethoxy-3-(2-methylpropyl)-1H,2H,3H,4H,6H,7H,11bH-pyrido[2,1-a]isoquinolin-2-yl]methyl morpholine-2-carboxylate] | < 10 nM
COc1cc2c(cc1OC)[C@H]1C[C@@H](COC[C@@H]3CCNC3)[C@H](CC(C)C)CN1CC2 [Compound 10-2, (3R)-3-({[(2R,3S,11bR)-9,10-dimethoxy-3-(2-methylpropyl)-1H,2H,3H,4H,6H,7H,11bH-pyrido[2,1-a]isoquinolin-2-yl]methoxy}methyl)pyrrolidine] | < 10 nM
COc1cc2c(cc1OC)[C@H]1C[C@@H](COC(=O)C(C)(C)O)[C@H](CC(C)C)CN1CC2 [Compound 2-24, [(2R,3S,11bR)-9,10-dimethoxy-3-(2-methylpropyl)-1H,2H,3H,4H,6H,7H,11bH-pyrido[2,1-a]isoquinolin-2-yl]methyl 2-hydroxy-2-methylpropanoate] | 10 to 500 nM
COc1cc2c(cc1OC)[C@H]1C[C@@H](COCCC3CCNCC3)[C@H](CC(C)C)CN1CC2 [Compound 10-1, 4-(2-{[(2R,3S,11bR)-9,10-dimethoxy-3-(2-methylpropyl)-1H,2H,3H,4H,6H,7H,11bH-pyrido[2,1-a]isoquinolin-2-yl]methoxy}ethyl)piperidine] | < 10 nM
COc1cc2c(cc1OC)[C@H]1C[C@@H](COC(=O)N3CCN4CCCCCC4C3)[C@H](CC(C)C)CN1CC2 (stereo partly drawn) [Compound 5-48, [(2R,3S,11bR)-9,10-dimethoxy-3-(2-methylpropyl)-1H,2H,3H,4H,6H,7H,11bH-pyrido[2,1-a]isoquinolin-2-yl]methyl decahydropiperazino[1,2-a]azepine-2-carboxylate] | < 10 nM
COc1cc2c(cc1OC)[C@H]1C[C@@H](COC(=O)N3CCN(C)C[C@H]3C)[C@H](CC(C)C)CN1CC2 [Compound 5-50, [(2R,3S,11bR)-9,10-dimethoxy-3-(2-methylpropyl)-1H,2H,3H,4H,6H,7H,11bH-pyrido[2,1-a]isoquinolin-2-yl]methyl (2R)-2,4-dimethylpiperazine-1-carboxylate] | < 10 nM
CCCCCC(=O)OC[C@@H]1C[C@@H]2c3cc(OC)c(OC)cc3CCN2C[C@H]1CC(C)C [Compound 2-34, [(2R,3S,11bR)-9,10-dimethoxy-3-(2-methylpropyl)-1H,2H,3H,4H,6H,7H,11bH-pyrido[2,1-a]isoquinolin-2-yl]methyl hexanoate] | < 10 nM
COc1cc2c(cc1OC)[C@H]1C[C@@H](COCC3CCNC3)[C@H](CC(C)C)CN1CC2 (stereo partly drawn) [Compound 10-6, 3-({[(2R,3S,11bR)-9,10-dimethoxy-3-(2-methylpropyl)-1H,2H,3H,4H,6H,7H,11bH-pyrido[2,1-a]isoquinolin-2-yl]methoxy}methyl)pyrrolidine] | < 10 nM
COc1cc2c(cc1OC)[C@H]1C[C@@H](COC(=O)CCn3c(=O)oc4ccccc43)[C@H](CC(C)C)CN1CC2 [Compound 2-39, [(2R,3S,11bR)-9,10-dimethoxy-3-(2-methylpropyl)-1H,2H,3H,4H,6H,7H,11bH-pyrido[2,1-a]isoquinolin-2-yl]methyl 3-(2-oxo-2,3-dihydro-1,3-benzoxazol-3-yl)propanoate] | < 10 nM
COc1cc2c(cc1OC)[C@H]1C[C@@H](COC[C@H]3CCCN3)[C@H](CC(C)C)CN1CC2 [Compound 10-7, (2R)-2-({[(2R,3S,11bR)-9,10-dimethoxy-3-(2-methylpropyl)-1H,2H,3H,4H,6H,7H,11bH-pyrido[2,1-a]isoquinolin-2-yl]methoxy}methyl)pyrrolidine] | < 10 nM
COc1cc2c(cc1OC)[C@H]1C[C@@H](COC(=O)C3CCCC3N)[C@H](CC(C)C)CN1CC2 (stereo partly drawn) [Compound 4-11, [(2R,3S,11bR)-9,10-dimethoxy-3-(2-methylpropyl)-1H,2H,3H,4H,6H,7H,11bH-pyrido[2,1-a]isoquinolin-2-yl]methyl 2-aminocyclopentane-1-carboxylate] | 10 to 500 nM
COc1cc2c(cc1OC)[C@H]1C[C@@H](COC(=O)CC(N)C(C)C)[C@H](CC(C)C)CN1CC2 (stereo partly drawn) [Compound 4-17, [(2R,3S,11bR)-9,10-dimethoxy-3-(2-methylpropyl)-1H,2H,3H,4H,6H,7H,11bH-pyrido[2,1-a]isoquinolin-2-yl]methyl 3-amino-4-methylpentanoate] | < 10 nM
COc1cc2c(cc1OC)[C@H]1C[C@@H](COC(=O)CC3(N)CCCCC3)[C@H](CC(C)C)CN1CC2 [Compound 4-14, [(2R,3S,11bR)-9,10-dimethoxy-3-(2-methylpropyl)-1H,2H,3H,4H,6H,7H,11bH-pyrido[2,1-a]isoquinolin-2-yl]methyl 2-(1-aminocyclohexyl)acetate] | < 10 nM
COc1cc2c(cc1OC)[C@H]1C[C@@H](COC(=O)C3CCCN(C)C3)[C@H](CC(C)C)CN1CC2 (stereo partly drawn) [Compound 2-12, [(2R,3S,11bR)-9,10-dimethoxy-3-(2-methylpropyl)-1H,2H,3H,4H,6H,7H,11bH-pyrido[2,1-a]isoquinolin-2-yl]methyl 1-methylpiperidine-3-carboxylate] | < 10 nM
COc1cc2c(cc1OC)[C@H]1C[C@@H](COC(=O)CC[N+](=O)[O-])[C@H](CC(C)C)CN1CC2 [Compound 2-14, [(2R,3S,11bR)-9,10-dimethoxy-3-(2-methylpropyl)-1H,2H,3H,4H,6H,7H,11bH-pyrido[2,1-a]isoquinolin-2-yl]methyl 3-nitropropanoate] | < 10 nM
COc1cc2c(cc1OC)[C@H]1C[C@@H](COC(=O)[C@H]3CCCC[C@@H]3N)[C@H](CC(C)C)CN1CC2 [Compound 4-25, [(2R,3S,11bR)-9,10-dimethoxy-3-(2-methylpropyl)-1H,2H,3H,4H,6H,7H,11bH-pyrido[2,1-a]isoquinolin-2-yl]methyl (1S,2S)-2-aminocyclohexane-1-carboxylate] | 10 to 500 nM
COc1cc2c(cc1OC)[C@H]1C[C@@H](COC(=O)OC(C)C)[C@H](CC(C)C)CN1CC2 [Compound 8-1, [(2R,3S,11bR)-9,10-dimethoxy-3-(2-methylpropyl)-1H,2H,3H,4H,6H,7H,11bH-pyrido[2,1-a]isoquinolin-2-yl]methyl propan-2-yl carbonate] | 10 to 500 nM
COc1cc2c(cc1OC)[C@H]1C[C@@H](COC(=O)C3CCOCC3)[C@H](CC(C)C)CN1CC2 [Compound 2-22, [(2R,3S,11bR)-9,10-dimethoxy-3-(2-methylpropyl)-1H,2H,3H,4H,6H,7H,11bH-pyrido[2,1-a]isoquinolin-2-yl]methyl oxane-4-carboxylate] | < 10 nM
COc1cc2c(cc1OC)[C@H]1C[C@@H](COC(=O)N3C[C@@H](C)O[C@@H](C)C3)[C@H](CC(C)C)CN1CC2 [Compound 5-53, [(2R,3S,11bR)-9,10-dimethoxy-3-(2-methylpropyl)-1H,2H,3H,4H,6H,7H,11bH-pyrido[2,1-a]isoquinolin-2-yl]methyl (2R,6S)-2,6-dimethylmorpholine-4-carboxylate] | 10 to 500 nM
CCS(=O)(=O)NCCC(=O)OC[C@@H]1C[C@@H]2c3cc(OC)c(OC)cc3CCN2C[C@H]1CC(C)C [Compound 2-5, [(2R,3S,11bR)-9,10-dimethoxy-3-(2-methylpropyl)-1H,2H,3H,4H,6H,7H,11bH-pyrido[2,1-a]isoquinolin-2-yl]methyl 3-ethanesulfonamidopropanoate] | < 10 nM
COC[C@@H]1C[C@@H]2c3cc(OC)c(OC)cc3CCN2C[C@H]1CC(C)C [Compound 9-1, (2R,3S,11bR)-9,10-dimethoxy-2-(methoxymethyl)-3-(2-methylpropyl)-1H,2H,3H,4H,6H,7H,11bH-pyrido[2,1-a]isoquinoline] | < 10 nM
COc1cc2c(cc1OC)[C@H]1C[C@@H](COC(=O)[C@@H]3COCCN3)[C@H](CC(C)C)CN1CC2 [Compound 4-3, [(2R,3S,11bR)-9,10-dimethoxy-3-(2-methylpropyl)-1H,2H,3H,4H,6H,7H,11bH-pyrido[2,1-a]isoquinolin-2-yl]methyl (3S)-morpholine-3-carboxylate] | 10 to 500 nM
COc1cc2c(cc1OC)[C@H]1C[C@@H](COC(=O)N(C)C(C)C(=O)O)[C@H](CC(C)C)CN1CC2 (stereo partly drawn) [Compound 5-28, 2-[({[(2R,3S,11bR)-9,10-dimethoxy-3-(2-methylpropyl)-1H,2H,3H,4H,6H,7H,11bH-pyrido[2,l-a]isoquinolin-2-yl]methoxy}carbonyl)(methyl)amino]propanoic acid] | > 500 nM
COc1cc2c(cc1OC)[C@H]1C[C@@H](COC(=O)C3(C)COC3)[C@H](CC(C)C)CN1CC2 [Compound 2-18, [(2R,3S,11bR)-9,10-dimethoxy-3-(2-methylpropyl)-1H,2H,3H,4H,6H,7H,11bH-pyrido[2,1-a]isoquinolin-2-yl]methyl 3-methyloxetane-3-carboxylate] | < 10 nM
COc1cc2c(cc1OC)[C@H]1C[C@@H](COCC3CCNCC3)[C@H](CC(C)C)CN1CC2 [Compound 10-5, 4-({[(2R,3S,11bR)-9,10-dimethoxy-3-(2-methylpropyl)-1H,2H,3H,4H,6H,7H,11bH-pyrido[2,1-a]isoquinolin-2-yl]methoxy}methyl)piperidine] | 10 to 500 nM
COc1cc2c(cc1OC)[C@H]1C[C@@H](COC(=O)CC(=O)O)[C@H](CC(C)C)CN1CC2 [Compound 3-2, 3-{[(2R,3S,11bR)-9,10-dimethoxy-3-(2-methylpropyl)-1H,2H,3H,4H,6H,7H,11bH-pyrido[2,1-a]isoquinolin-2-yl]methoxy}-3-oxopropanoic acid] | < 10 nM
COc1cc2c(cc1OC)[C@H]1C[C@@H](COC(=O)CCCN(C)C)[C@H](CC(C)C)CN1CC2 [Compound 2-36, [(2R,3S,11bR)-9,10-dimethoxy-3-(2-methylpropyl)-1H,2H,3H,4H,6H,7H,11bH-pyrido[2,1-a]isoquinolin-2-yl]methyl 4-(dimethylamino)butanoate] | < 10 nM
COc1cc2c(cc1OC)[C@H]1C[C@@H](COC(=O)CCn3nccc3C)[C@H](CC(C)C)CN1CC2 [Compound 2-29, [(2R,3S,11bR)-9,10-dimethoxy-3-(2-methylpropyl)-1H,2H,3H,4H,6H,7H,11bH-pyrido[2,1-a]isoquinolin-2-yl]methyl 3-(5-methyl-1H-pyrazol-1-yl)propanoate] | 10 to 500 nM
